Target: T1, Dimer of Gag-Pol polyprotein [489-587,Q496K] (Human immunodeficiency virus 1, UniProt P12497, Q496K)
T1 construct: 489-587
Experiment: Protease Inhibition Assay
Conditions: pH 5.5; 30 °C
Method: Assay of HIV protease inhibition was performed by peptide cleavage using the substrate Val-Ser-Gln-Asn-beta-naphthylalanine*Pro-Ile-Val. Products of the cleavage reaction were quantified by HPLC detection, and data were fit to nonlinear least squares equations for determination of steady-state Michaelis-Menten kinetics.

| SMILES | IC50 [nM] |
| --- | --- |
| CC(C)(c1ccc(-c2ccncc2)o1)N1CCN(C[C@@H](O)C[C@@H](Cc2ccccc2)C(=O)N[C@H]2c3ccccc3OC[C@H]2O)[C@H](C(=O)NCC(F)(F)F)C1 [(2S)-1-[(2S,4R)-4-benzyl-2-hydroxy-4-{[(3S,4S)-3-hydroxy-3,4-dihydro-2H-1-benzopyran-4-yl]carbamoyl}butyl]-4-{2-[5-(pyridin-4-yl)furan-2-yl]propan-2-yl}-N-(2,2,2-trifluoroethyl)piperazine-2-carboxamide] | 0.05 |
| CC(C)(c1ncc(-c2cncc(Cl)c2)o1)N1CCN(C[C@@H](O)C[C@@H](Cc2ccccc2)C(=O)N[C@H]2c3ccccc3OC[C@H]2O)[C@H](C(=O)NCC(F)(F)F)C1 [(2S)-1-[(2S,4R)-4-benzyl-2-hydroxy-4-{[(3S,4S)-3-hydroxy-3,4-dihydro-2H-1-benzopyran-4-yl]carbamoyl}butyl]-4-{2-[5-(5-chloropyridin-3-yl)-1,3-oxazol-2-yl]propan-2-yl}-N-(2,2,2-trifluoroethyl)piperazine-2-carboxamide] | 0.02 |
